In patent US20210330821A1, “METHODS OF MAKING PROSTATE CANCER TREATMENT DECISIONS” (priority 2018, published 2021):

Assay: OSPREY safety: drug-related adverse events after 18F-DCFPyL
Format: in vivo, human
Procedure: The coprimary endpoints of sensitivity and specificity of ^18F-DCFPyL PET/CT for detecting pelvic lymph node metastases were evaluated in Cohort A. Secondary endpoints included safety in both cohorts, positive predictive value (PPV) and negative predictive value (NPV) in Cohort A, and sensitivity and PPV in Cohort B. Three central, blinded, and independent readers evaluated the ^18F-DCFPyL scans. Histopathology served as the reference standard to which imaging findings were compared. FIG. 1 provides information regarding the study design and cohorts.
Co-primary endpoints of specificity and sensitivity of ^18F-DCFPyL PET/CT for detecting prostate cancer metastases in pelvic lymph nodes were evaluated in Cohort A. Key secondary endpoints included incidence of adverse events, positive predictive value (PPV) and negative predictive value (NPV) of ^18F-DCFPyL PET/CT imaging to detect pelvic lymph node metastases in Cohort A, sensitivity and PPV of ^18F-DCFPyL PET/CT imaging to detect prostate cancer within sites of metastasis or recurrence in Cohort B. Three central, blinded, and independent readers evaluated the ^18F-DCFPyL scans. Imaging findings were compared to histopathology as the truth standard.
Pts underwent image-guided biopsy.

O=C(O)CC[C@H](NC(=O)N[C@@H](CCCCNC(=O)c1ccc([18F])nc1)C(=O)O)C(=O)O [18F-DCFPyL]
Cohort B pts who experienced ≥1 drug-related AE (Cohort B, 117 men, dysgeusia and generalized rash): 1.7%
Severity of drug-related AEs (Cohort B, dysgeusia and generalized rash): mild (Grade 1)
Dysgeusia (drug-related adverse event) (both cohorts): 2.1%
Headache (drug-related adverse event) (both cohorts): 2.1%
Drug-related serious adverse events (both cohorts, 385 men): No drug-related serious adverse events were observed
Men who experienced ≥1 drug-related adverse event (both cohorts, 385 men): 7.0%
Tolerability (patients with PCa, OSPREY): generally well tolerated
